The source of these data is ChEMBL document CHEMBL1201862, “PubChem BioAssay data set” (2004).

Assay [1] deals with T1, Small ubiquitin-related modifier 1 (Homo sapiens, UniProt P63165). In words: SUMO1 protein-protein binding blockers, potency – biochemical, FRET, dose response (AID 624383). The class given is functional. The conditions noted are these: read-out: IC50_Mean.
Assay [2] has as its target T1, Small ubiquitin-related modifier 1. In words: SUMO1 protein interaction blockers, potency – biochemical, fluorescence polarization, uHTS hits, dose response (AID 624382). The format is functional. To be noted: read-out: IC50_Mean.
The target in assay [3] is T2, Beta-adrenergic receptor kinase 1 (Homo sapiens, UniProt P25098). The experiment in a line: blockers of aptamer binding to GRK2 – biochemical, flow cytometry beads, FAM-aptamer, powder set 1, dose response (AID 588720). In general terms: Flow cytometry measures light scatter and fluorescence of single cells or particles in a stream.
T2 sequence (P25098 whole entry): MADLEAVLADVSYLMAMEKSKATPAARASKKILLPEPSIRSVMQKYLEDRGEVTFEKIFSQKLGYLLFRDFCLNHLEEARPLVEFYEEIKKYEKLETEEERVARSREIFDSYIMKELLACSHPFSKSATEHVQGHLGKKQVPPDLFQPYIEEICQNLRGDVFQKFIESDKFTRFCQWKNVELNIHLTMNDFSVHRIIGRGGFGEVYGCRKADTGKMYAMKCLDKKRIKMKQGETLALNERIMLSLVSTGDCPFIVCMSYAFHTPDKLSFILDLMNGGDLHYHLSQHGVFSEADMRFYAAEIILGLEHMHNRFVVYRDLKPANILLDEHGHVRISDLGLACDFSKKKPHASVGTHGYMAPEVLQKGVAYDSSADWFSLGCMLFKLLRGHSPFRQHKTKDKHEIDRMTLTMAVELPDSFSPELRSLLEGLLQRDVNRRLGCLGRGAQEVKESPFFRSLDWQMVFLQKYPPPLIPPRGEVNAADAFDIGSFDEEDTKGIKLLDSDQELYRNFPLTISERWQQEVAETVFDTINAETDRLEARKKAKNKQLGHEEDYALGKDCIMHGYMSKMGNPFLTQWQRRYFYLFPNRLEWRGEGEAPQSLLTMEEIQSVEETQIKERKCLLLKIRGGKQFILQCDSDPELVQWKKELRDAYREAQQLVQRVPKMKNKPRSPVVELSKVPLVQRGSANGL
The target in assay [4] is T2, Beta-adrenergic receptor kinase 1. The experiment in a line: aptamer displacement from bead-bound GRK2 – biochemical, cherry pick 1, bead flow cytometry, dose response (AID 504500).
Assay [5] deals with HEK293. The experiment in a line: SAR Analysis of small molecule inhibitors of T-cell specific antigen receptor-induced NF-kB activation in a HEK-293T cell line using a luminescence assay - Set 2. [Related pubchem assays (depositor defined):AID435003, AID435012, AID489026]. The class given is functional, cell-based. To be noted: Homo sapiens.
Assay [6] has as its system HEK293. In words: HEK293T cell viability loss, resazurin readout – resazurin fluorescence, cytotoxicity control for NF-kB activator project, SAR follow-up (AID 493251). The class given is functional, cell-based. The conditions noted are these: Homo sapiens. A general note: The colour change of resazurin is a common sign of viable cells or microbes.
A further assay has as its system Jurkat. The experiment in a line: SAR Analysis of small molecule inhibitors of T-cell specific antigen receptor-induced NF-kB activation in a Jurkat cell line using a luminescence assay - Set 2. [Related pubchem assays (depositor defined):AID435003, AID435012, AID465]. The format is functional, cell-based. To be noted: Homo sapiens.
In assay [7] the test system is MDCK. The experiment in a line: MDCK cell cytotoxicity, dose response, cytotoxicity control (AID 540296). The class given is functional. To be noted: Canis lupus familiaris.
Assay [8] deals with MDCK. In words: antiviral activity against H1N1 influenza, dose response, cell-based, strain KY136 (AID 540257). To be noted: Canis lupus familiaris. The class given is functional.
A further assay deals with T3, Protein RecA (Mycobacterium tuberculosis, UniProt P9WHJ3).
T3 sequence (P9WHJ3 whole entry): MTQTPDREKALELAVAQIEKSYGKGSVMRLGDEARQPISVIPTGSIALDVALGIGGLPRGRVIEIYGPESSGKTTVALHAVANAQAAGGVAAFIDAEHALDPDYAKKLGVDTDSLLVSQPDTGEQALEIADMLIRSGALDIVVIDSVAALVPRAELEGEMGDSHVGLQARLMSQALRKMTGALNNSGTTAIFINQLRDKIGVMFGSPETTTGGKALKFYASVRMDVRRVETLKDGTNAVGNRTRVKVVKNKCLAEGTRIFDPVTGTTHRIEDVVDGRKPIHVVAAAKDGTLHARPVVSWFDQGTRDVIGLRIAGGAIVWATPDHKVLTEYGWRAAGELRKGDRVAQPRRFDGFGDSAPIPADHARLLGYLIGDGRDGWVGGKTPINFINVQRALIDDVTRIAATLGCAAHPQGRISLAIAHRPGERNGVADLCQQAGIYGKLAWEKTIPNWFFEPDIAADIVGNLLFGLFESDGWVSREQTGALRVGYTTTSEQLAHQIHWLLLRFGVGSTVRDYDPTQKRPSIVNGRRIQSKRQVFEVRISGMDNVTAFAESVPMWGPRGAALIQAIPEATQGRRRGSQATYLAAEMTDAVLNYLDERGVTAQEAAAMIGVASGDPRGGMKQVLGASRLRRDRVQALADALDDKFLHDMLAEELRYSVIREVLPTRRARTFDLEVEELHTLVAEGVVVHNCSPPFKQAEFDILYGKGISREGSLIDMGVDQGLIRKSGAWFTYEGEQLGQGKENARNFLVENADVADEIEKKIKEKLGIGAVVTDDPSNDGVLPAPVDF
The experiment in a line: Fluorescence Cell-Free Homogeneous Dose Retest to Identify Inhibitors of RecA-Intein Splicing Activity. [Related pubchem assays (depositor defined):AID2097, AID2223, AID489010, AID492950]. The format is functional.

The subject of a further assay is Vero. The experiment in a line: Vero E6 cell cytotoxicity, dose response, cytotoxicity control (AID 540298). The class given is functional. The conditions noted are these: Chlorocebus sabaeus.
Assay [9] addresses T4, Replicative DNA helicase DnaB (Mycobacterium tuberculosis, UniProt P9WMR3).
T4 sequence (P9WMR3 whole entry): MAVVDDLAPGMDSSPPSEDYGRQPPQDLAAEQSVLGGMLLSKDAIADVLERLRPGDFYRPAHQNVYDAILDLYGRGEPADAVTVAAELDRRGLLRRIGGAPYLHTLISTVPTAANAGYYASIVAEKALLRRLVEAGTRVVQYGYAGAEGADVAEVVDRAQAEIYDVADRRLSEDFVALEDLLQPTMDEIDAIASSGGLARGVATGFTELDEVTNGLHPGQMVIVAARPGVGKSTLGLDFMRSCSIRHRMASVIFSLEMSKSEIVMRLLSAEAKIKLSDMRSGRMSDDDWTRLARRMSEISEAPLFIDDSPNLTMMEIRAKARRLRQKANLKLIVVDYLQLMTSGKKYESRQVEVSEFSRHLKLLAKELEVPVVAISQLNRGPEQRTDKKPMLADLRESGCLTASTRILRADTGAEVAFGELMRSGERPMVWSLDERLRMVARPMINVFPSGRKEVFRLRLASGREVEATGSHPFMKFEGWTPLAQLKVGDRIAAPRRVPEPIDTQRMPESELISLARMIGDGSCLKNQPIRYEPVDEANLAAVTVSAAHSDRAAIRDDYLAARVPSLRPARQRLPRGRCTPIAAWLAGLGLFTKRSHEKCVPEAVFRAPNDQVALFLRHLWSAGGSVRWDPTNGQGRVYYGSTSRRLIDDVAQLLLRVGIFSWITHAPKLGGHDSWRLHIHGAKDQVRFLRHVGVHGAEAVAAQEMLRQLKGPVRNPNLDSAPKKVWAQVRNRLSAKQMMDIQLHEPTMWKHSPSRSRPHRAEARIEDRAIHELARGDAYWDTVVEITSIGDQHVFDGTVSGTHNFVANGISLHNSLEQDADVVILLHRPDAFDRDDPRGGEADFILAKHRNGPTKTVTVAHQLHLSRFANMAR
The experiment in a line: DnaB intein splicing inhibitors, dose response, biochemical, cell-free fluorescence (AID 449749). The class given is functional.

The next assay has as its target Nonstructural protein 1 (Influenza A virus, UniProt Q194T2). The format is functional, Influenza A virus (A/California/07/2009(H1N1)).
For assay [10], the system named is Candida albicans. In words: resistant Candida growth with fluconazole co-treatment – CaCi-8 strain, Alamar Blue, dry powder, set 2, dose response (AID 488909). The class given is functional, organism-based.
Assay [11] deals with Candida albicans. In words: C. albicans growth inhibition with fluconazole – CaCi-2 strain, Alamar Blue, dry powder, set 4, dose response (AID 488943). The class given is functional, organism-based.
Assay [12] has as its system Candida albicans. The experiment in a line: fluconazole-resistant Candida strain growth inhibitors – CaCi-8 strain, dry powder, set 4, dose response (AID 488950). The class given is functional, organism-based.
The subject of assay [13] is Candida albicans. The experiment in a line: Candida growth reduction in fluconazole presence – CaCi-2 strain, Alamar Blue, dry powder, set 2, antifungal resistance reversal project, dose response (AID 488930). The format is functional, organism-based.
Assay [14] relates to BJ. The experiment in a line: BJ-TERT fibroblast viability loss – cell-based, RAS-independent, luminescence, dose response (AID 1933). The format is functional. The conditions noted are these: Homo sapiens.
The nature of assay [15]: luciferase reporter signal suppression in cells – H4 neuroglioma cells, luminescence, dose response (AID 1990). The format is functional, cell-based. Background: Reporter assays use an easily measured gene product as a stand-in for the process of interest.
For assay [16], the system named is BJ. In words: BJ-TERT-LT-ST fibroblast viability loss – cell-based, RAS-independent, luminescence, dose response (AID 1935).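 Note: BJ fibroblasts immortalized with TERT plus LT and ST oncogenes.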 The class given is functional. To be noted: Homo sapiens.
Assay [17] is described as follows: DRD fibroblast viability loss – cell-based, non-viral oncogenic, luminescence, dose response (AID 1934). The conditions noted are these: Homo sapiens. The class given is functional.
Assay [18] concerns BJ. In words: cells. The format is functional, cell-based. To be noted: Homo sapiens.
Assay [19] has as its system BJ. In words: growth inhibition of engineered Ras-driven BJ cells – cell-based, alamar blue fluorescence, cherrypicked samples, dose response (AID 2631).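 Note: confirmatory dose-response assay in RAS-dependent BJ fibroblasts engineered with TERT, LT and ST, with cytotoxicity read by fluorescence.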 The class given is functional. To be noted: Homo sapiens.
The nature of assay [20]: Luminescence Cell-Based Dose Response HTS to Identify Inhibitors of 5'UTR Stem-Loop Driven Prion Protein mRNA Translation in H4 Neuroglioblastoma Cells. [Related pubchem assays: 1827 (Project Summary), 1813 (Primary HTS)]. The format is functional.
Assay [21] in a line: alpha-synuclein stem-loop luciferase translation blockers – H4 neuroglioma cells, luminescence, confirmation (AID 1988). The class given is functional, cell-based.
For assay [22], the target named is T5, Heat shock factor protein 1 (Mus musculus, UniProt P38532).
T5 sequence (P38532 whole entry): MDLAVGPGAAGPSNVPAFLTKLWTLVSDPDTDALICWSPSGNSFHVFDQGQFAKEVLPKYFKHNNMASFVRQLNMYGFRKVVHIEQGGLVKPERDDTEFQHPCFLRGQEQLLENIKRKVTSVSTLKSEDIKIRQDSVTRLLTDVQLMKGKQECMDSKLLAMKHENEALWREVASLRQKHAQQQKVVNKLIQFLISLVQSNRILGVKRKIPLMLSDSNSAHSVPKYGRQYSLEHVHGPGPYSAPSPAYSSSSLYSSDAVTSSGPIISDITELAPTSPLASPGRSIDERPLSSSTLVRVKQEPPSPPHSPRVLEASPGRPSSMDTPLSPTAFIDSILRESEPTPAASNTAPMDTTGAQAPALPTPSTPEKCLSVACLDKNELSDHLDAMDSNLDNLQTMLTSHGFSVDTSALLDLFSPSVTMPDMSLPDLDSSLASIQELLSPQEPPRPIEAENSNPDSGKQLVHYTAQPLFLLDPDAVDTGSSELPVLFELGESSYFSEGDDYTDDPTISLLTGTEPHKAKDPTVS
The experiment in a line: decrease of HSF1-responsive luciferase luminescence – cell-based, NIH3T3, dose retest, confirmation (AID 2382).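 Note: NIH3T3 fibroblasts with HSF1-driven luciferase reporter stressed by proteasome inhibitor MG132; luminescence from HSF1-driven luciferase expression after 8 hours of MG132 stress.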 The class given is functional.

Activity calls are given as the source filed them. Some results are limits rather than exact numbers.

T1 sequence (P63165 whole entry): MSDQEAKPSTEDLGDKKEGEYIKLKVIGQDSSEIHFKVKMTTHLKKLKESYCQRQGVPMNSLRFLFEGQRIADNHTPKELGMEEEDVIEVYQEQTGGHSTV
Sequence of Nonstructural protein 1 (Q194T2 whole entry): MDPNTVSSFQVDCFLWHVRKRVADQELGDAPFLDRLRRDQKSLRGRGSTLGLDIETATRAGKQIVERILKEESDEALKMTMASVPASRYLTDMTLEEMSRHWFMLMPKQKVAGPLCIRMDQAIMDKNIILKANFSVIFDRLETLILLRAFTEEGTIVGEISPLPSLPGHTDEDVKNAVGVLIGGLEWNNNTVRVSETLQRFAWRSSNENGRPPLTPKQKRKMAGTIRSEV

As usually defined, the EC50 is the concentration needed to bring the measured effect to its halfway point. For `CC(CS(=O)(=O)c1ccc2c(c1)NC(=O)CS2)C(=O)NCc1ccccc1Cl` (stereo not drawn), the results for the IC50 in [1] and in assay [2] were 4.08 µM (active) and > 66.6 µM (inactive), respectively. Further, the concentration for a half-maximal effect (EC50) in assay [3] is 0.638 µM (active); in [4], 7.53 µM (active).
`COc1ccccc1C(NC(C)=O)c1ccc2cccnc2c1O` (stereo not drawn): the IC50 in the assay on HEK293 [5] was 7.96 µM (active); in the assay with HEK293 [6] it was 7.73 µM (active); in the assay on Jurkat, 7.09 µM (active).
A word on the CC50: it is the concentration giving 50% cytotoxicity. A word on the AC50: it is the midpoint of the concentration-response curve, whichever way the signal moves. In the case of `COc1cccc(/C=C2\SC(=S)N(CCCC(=O)N3CCCC3)C2=O)c1`, the CC50 was > 40 µM (active) with MDCK [7] and 12.8 µM (active) in the assay with Vero. In addition, the IC50 in the assay on MDCK [8] was 32.9 µM (active); at Nonstructural protein 1, 66.8 µM (active). The EC50 at Protein RecA is > 380 µM (inactive). Moreover, the AC50 in assay [9] was 71.1 µM (active).
As to `CC1CN(c2ccnc3cc(Cl)ccc23)CCN1C(=O)c1ccc(Cl)cc1` (stereo not drawn), the half-maximal activity concentration (AC50) with Candida albicans [10] was 6.14 µM (active); in the assay with Candida albicans [11], 0.783 µM (active); with Candida albicans [12], 1.82 µM (active); in the assay on Candida albicans [13], 0.645 µM (active).
As for `COc1cc(C2CC(c3cccs3)=NN2C(=O)CCl)ccc1OC(F)F` (stereo not drawn), the concentration giving a half-maximal response (EC50) in the assay with BJ [14] is 0.625 µM (active); in assay [15] it was > 120 µM (not active); in the assay with BJ [16], 4.47 µM (inconclusive); in [17], 1.95 µM (active); on Protein RecA, 1.13 µM (active); in the assay on BJ [18], 2.56 µM (active). Moreover, the EC50 with BJ [19] is 0.608 µM (active); in assay [20], 11 µM (active); in [21], 8.46 µM (active); in [22], 3.04 µM (active). For the same compound, the half-maximal activity concentration (AC50) in assay [9] is 1.51 µM (active).
